Consider 18 molecules from patent US20140249135A1, “PIM KINASE INHIBITORS AND METHODS OF THEIR USE” (NOVARTIS AG, priority 2007, published 2014).

The target of assay [1] is Pim1 kinase (Homo sapiens, UniProt P11309). Nature of the assay: Pim1 ATP depletion assay.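 Note: Luciferase-luciferin luminescence readout of residual ATP after PIM1 transfers phosphate to a peptide substrate, 40 µM ATP added, reaction run to roughly half ATP consumption.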 Format: biochemical. The settings on record: Pim1 ATP depletion assay; read-out: IC50 (μM) PIM1.
For assay [2], the target named is Pim2 kinase (Homo sapiens, UniProt Q9P1W9). The assay can be described thus: Pim2 ATP depletion assay.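 Note: Luciferase-based luminescent readout of ATP remaining after PIM2 phosphorylates a BAD peptide, final 5 nM enzyme, 4 µM ATP, 10 µM peptide, 2.5% DMSO, run to roughly half ATP consumption.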 Type of assay: biochemical. The settings on record: read-out: IC50 (μM) PIM2.
Assay [3] addresses Pim3 kinase (Homo sapiens, UniProt Q86V86). The assay can be described thus: Pim3 ATP depletion assay. Format: biochemical. The settings on record: read-out: IC50 (μM) PIM3.
The target of assay [4] is T1, human full length PKCE enzyme (Homo sapiens, UniProt Q02156).
T1 construct: human full length PKCE enzyme purchased from InVitrogen; purchased InVitrogen
T1 sequence (Q02156 1-737): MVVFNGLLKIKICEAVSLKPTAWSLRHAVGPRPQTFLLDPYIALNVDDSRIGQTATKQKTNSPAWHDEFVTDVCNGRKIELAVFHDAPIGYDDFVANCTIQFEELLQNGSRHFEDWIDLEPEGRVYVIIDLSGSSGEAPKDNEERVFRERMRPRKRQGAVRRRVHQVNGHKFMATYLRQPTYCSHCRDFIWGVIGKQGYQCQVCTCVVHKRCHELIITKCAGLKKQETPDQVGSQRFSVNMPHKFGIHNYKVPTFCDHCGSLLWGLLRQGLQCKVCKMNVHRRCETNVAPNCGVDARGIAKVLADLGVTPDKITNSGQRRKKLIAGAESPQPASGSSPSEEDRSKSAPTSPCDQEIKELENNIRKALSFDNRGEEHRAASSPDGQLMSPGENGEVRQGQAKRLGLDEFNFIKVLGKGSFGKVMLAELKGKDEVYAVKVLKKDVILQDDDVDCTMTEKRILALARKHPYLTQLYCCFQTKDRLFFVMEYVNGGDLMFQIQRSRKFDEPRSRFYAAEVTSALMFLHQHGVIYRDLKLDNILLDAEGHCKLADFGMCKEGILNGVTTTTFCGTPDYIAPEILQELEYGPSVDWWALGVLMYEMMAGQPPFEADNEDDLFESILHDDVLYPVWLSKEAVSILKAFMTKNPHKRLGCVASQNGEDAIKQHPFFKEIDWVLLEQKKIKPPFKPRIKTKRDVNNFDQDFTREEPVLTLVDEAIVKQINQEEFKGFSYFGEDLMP
The assay can be described thus: In vitro PKCE assay. Type of assay: biochemical. As to conditions: 10 nM enzyme, 40 uM peptide substrate, 20 uM ATP, KinaseGlo Plus readout; read-out: PKCε IC50.

Assay [5] concerns the target KDR kinase (Homo sapiens, UniProt P35968). Nature of the assay: KDR AlphaScreen assay. As to conditions: KDR IC50 (μM).

pIC50: −log10 of the molar value.

KDR kinase, sequence (P35968 20-1356): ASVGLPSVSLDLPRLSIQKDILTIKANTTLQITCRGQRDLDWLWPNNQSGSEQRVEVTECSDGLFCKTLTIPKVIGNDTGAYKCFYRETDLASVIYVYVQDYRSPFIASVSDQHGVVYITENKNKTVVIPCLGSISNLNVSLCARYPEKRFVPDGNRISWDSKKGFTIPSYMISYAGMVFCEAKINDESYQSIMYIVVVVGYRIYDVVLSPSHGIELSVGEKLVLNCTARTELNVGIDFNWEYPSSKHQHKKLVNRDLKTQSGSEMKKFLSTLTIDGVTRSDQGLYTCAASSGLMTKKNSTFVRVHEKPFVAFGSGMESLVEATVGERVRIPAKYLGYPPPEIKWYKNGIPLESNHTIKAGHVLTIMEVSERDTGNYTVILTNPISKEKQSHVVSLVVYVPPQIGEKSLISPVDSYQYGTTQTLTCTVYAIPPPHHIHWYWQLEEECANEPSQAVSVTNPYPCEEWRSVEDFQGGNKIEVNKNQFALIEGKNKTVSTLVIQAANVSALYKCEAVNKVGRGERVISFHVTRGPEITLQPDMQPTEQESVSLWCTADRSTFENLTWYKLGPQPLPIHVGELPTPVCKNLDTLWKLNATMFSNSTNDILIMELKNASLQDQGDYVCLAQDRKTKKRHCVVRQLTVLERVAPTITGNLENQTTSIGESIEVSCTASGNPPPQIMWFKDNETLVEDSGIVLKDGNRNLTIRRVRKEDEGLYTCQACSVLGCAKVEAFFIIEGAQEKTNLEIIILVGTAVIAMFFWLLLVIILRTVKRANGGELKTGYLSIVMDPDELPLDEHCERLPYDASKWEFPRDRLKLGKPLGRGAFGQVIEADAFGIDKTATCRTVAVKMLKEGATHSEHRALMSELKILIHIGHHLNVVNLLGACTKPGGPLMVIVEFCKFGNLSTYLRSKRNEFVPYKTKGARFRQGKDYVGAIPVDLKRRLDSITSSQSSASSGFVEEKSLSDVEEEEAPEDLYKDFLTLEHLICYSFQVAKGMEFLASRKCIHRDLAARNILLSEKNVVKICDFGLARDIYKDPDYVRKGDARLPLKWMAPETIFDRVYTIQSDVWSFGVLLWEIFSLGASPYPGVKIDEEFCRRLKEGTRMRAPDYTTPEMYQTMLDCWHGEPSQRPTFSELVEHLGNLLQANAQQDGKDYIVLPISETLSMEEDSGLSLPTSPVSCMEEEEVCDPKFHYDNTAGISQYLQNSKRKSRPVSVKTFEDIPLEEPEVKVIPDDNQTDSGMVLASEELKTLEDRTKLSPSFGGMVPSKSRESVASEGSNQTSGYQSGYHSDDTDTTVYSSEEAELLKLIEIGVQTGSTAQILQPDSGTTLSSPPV
Pim2 kinase, sequence (Q9P1W9 whole entry): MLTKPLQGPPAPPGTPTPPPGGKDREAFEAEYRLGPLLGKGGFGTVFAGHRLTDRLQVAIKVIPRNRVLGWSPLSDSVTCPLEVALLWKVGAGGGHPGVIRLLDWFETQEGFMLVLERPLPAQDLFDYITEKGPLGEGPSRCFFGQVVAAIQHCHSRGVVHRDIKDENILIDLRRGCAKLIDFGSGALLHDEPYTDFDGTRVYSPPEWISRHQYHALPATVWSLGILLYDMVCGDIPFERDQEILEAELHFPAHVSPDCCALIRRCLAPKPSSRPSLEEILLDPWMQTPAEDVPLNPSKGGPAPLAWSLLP
Pim1 kinase, sequence (P11309 whole entry): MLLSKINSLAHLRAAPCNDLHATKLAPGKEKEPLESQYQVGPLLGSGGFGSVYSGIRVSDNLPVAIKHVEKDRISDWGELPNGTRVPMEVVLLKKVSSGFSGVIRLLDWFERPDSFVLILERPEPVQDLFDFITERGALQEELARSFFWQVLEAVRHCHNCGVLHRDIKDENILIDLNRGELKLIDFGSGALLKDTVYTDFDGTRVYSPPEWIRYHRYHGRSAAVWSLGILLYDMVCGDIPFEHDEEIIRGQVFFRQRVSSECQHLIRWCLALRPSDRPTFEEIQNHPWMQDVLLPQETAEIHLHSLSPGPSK

With `COc1ccc(N2CCCC(N)C2)c(NC(=O)c2nc(Br)cnc2N)c1` (stereo not drawn) [Example 212, 3-amino-N-[2-(3-aminopiperidin-1-yl)-5-methoxyphenyl]-6-bromopyrazine-2-carboxamide], the IC50 in assay [1] is under 1 µM; in assay [2], under 1 µM; in assay [3], under 1 µM; in assay [5], 10 to 25 µM. The pIC50 in assay [4] is over 6.00.
Take `Nc1nccnc1C(=O)Nc1cc(Cl)ccc1N1CCNCC1` [Example 213, 3-amino-N-(5-chloro-2-piperazin-1-ylphenyl)pyrazine-2-carboxamide]: the IC50 is 1 to 10 µM in assay [1], over 25 µM in assay [2], 1 to 10 µM in assay [3] and over 25 µM in assay [5]. Also, the pIC50 in assay [4] is 5.00 to 6.00.
On to `Nc1nccnc1C(=O)Nc1cc(Cl)ccc1N1CCCC(N)C1` (stereo not drawn) [Example 215, 3-amino-N-[2-(3-aminopiperidin-1-yl)-5-chlorophenyl]pyrazine-2-carboxamide], for which the IC50 is under 1 µM in assay [1], 1 to 10 µM in assay [2], under 1 µM in assay [3] and over 25 µM in assay [5]. Also, in assay [4], the pIC50 was 5.00 to 6.00.
With `Cc1ccc(N2CCNCC2)c(NC(=O)c2nccnc2N)c1` [Example 216, 3-amino-N-(5-methyl-2-piperazin-1-ylphenyl)pyrazine-2-carboxamide], the IC50 in assay [1] was 1 to 10 µM; in assay [2] it was over 25 µM; in assay [3] it was 1 to 10 µM; in assay [5], over 25 µM. Besides, the pIC50 in assay [4] was 5.00 to 6.00.
Regarding `Cc1ccc(N2CCCC(N)C2)c(NC(=O)c2nccnc2N)c1` (stereo not drawn) [Example 218, 3-amino-N-[2-(3-aminopiperidin-1-yl)-5-methylphenyl]pyrazine-2-carboxamide], the IC50 in assay [1] was under 1 µM; in assay [2], 10 to 25 µM; in assay [3] it was under 1 µM; in assay [5] it was over 25 µM. In addition, the pIC50 in assay [4] was 5.00 to 6.00.
On to `CC(=O)c1ccc(N2CCNCC2)c(NC(=O)c2nccnc2N)c1` [Example 219, N-(5-acetyl-2-piperazin-1-yl-phenyl)-3-aminopyrazine-2-carboxamide], for which the IC50 in assay [1] was under 1 µM; in assay [2] it was 10 to 25 µM; in assay [3] it was under 1 µM; in assay [5], over 25 µM. Besides, in assay [4], the pIC50 is 5.00 to 6.00.
On to `COc1ccc(N2CCCC(N)C2)c(NC(=O)c2nccnc2N)c1` (stereo not drawn) [Example 223, 3-amino-N-[2-(3-aminopiperidin-1-yl)-5-methoxyphenyl]pyrazine-2-carboxamide], for which the IC50 in assay [1] was under 1 µM; in assay [2], 1 to 10 µM; in assay [3], under 1 µM; in assay [5], over 25 µM. The pIC50 in assay [4] is over 6.00.
With `Nc1nccnc1C(=O)Nc1cc(C(F)(F)F)ccc1N1CCNCC1` [Example 224, 3-amino-N-[2-piperazin-1-yl-5-(trifluoromethyl)phenyl]pyrazine-2-carboxamide], the IC50 in assay [1] is under 1 µM; in assay [2], over 25 µM; in assay [3], 1 to 10 µM; in assay [5], over 25 µM. Also, the pIC50 in assay [4] is 5.00 to 6.00.
With `Nc1nccnc1C(=O)Nc1cc(C(F)(F)F)ccc1N1CCC(N)CC1` [Example 225, 3-amino-N-[2-(4-aminopiperidin-1-yl)-5-(trifluoromethyl)phenyl]-pyrazine-2-carboxamide], the IC50 in assay [1] was under 1 µM; in assay [2], 10 to 25 µM; in assay [3], under 1 µM; in assay [5] it was over 25 µM. Moreover, in assay [4], the pIC50 was 5.00 to 6.00.
Take `Nc1nccnc1C(=O)Nc1cc(C(F)(F)F)ccc1N1CCCC(N)C1` (stereo not drawn) [Example 226, 3-amino-N-[2-(3-aminopiperidin-1-yl)-5-(trifluoromethyl)phenyl]-pyrazine-2-carboxamide]: the IC50 in assay [1] is under 1 µM; in assay [2], 1 to 10 µM; in assay [3], under 1 µM; in assay [5] it was over 25 µM. Also, the pIC50 in assay [4] is 5.00 to 6.00.
As to `Cc1ccc(NC(=O)c2nccnc2N)c(N2CCNCC2)c1` [Example 227, 3-amino-N-(4-methyl-2-piperazin-1-ylphenyl)pyrazine-2-carboxamide], the IC50 was 1 to 10 µM in assay [1], over 25 µM in assay [2], 1 to 10 µM in assay [3] and over 25 µM in assay [5]. Moreover, in assay [4], the pIC50 was 5.00 to 6.00.
With `Cc1ccc(NC(=O)c2nccnc2N)c(N2CCCC(N)C2)c1` (stereo not drawn) [Example 229, 3-amino-N-[2-(3-aminopiperidin-1-yl)-4-methylphenyl]pyrazine-2-carboxamide], the IC50 in assay [1] is under 1 µM; in assay [2], 1 to 10 µM; in assay [3], under 1 µM; in assay [5], over 25 µM. Moreover, the pIC50 in assay [4] was 5.00 to 6.00.
As for `N#Cc1ccc(N2CCCC(N)C2)c(NC(=O)c2nccnc2N)c1` (stereo not drawn) [Example 230, 3-amino-N-[2-(3-aminopiperidin-1-yl)-5-cyanophenyl]pyrazine-2-carboxamide], the IC50 is under 1 µM in assay [1], under 1 µM in assay [2], under 1 µM in assay [3] and over 25 µM in assay [5]. Moreover, in assay [4], the pIC50 is over 6.00.
Regarding `Nc1nccnc1C(=O)Nc1cc(C(=O)c2ccccc2)ccc1N1CCCC(N)C1` (stereo not drawn) [Example 231, 3-amino-pyrazine-2-carboxylic acid [2-(3-amino-piperidin-1-yl)-5-benzoyl-phenyl]-amide], the IC50 in assay [1] is 1 to 10 µM; in assay [2], over 25 µM; in assay [3], 1 to 10 µM; in assay [5] it was 10 to 25 µM. Also, in assay [4], the pIC50 is 4.60 to 5.00.
For the molecule `Nc1nccnc1C(=O)Nc1cc(C(=O)c2ccccc2)ccc1N1CCNCC1` [Example 232, 3-amino-pyrazine-2-carboxylic acid (5-benzoyl-2-piperazin-1-yl-phenyl)-amide], the half-inhibitory concentration (IC50) was 10 to 25 µM in assay [1], over 25 µM in assay [2], 10 to 25 µM in assay [3] and 10 to 25 µM in assay [5]. Moreover, the pIC50 in assay [4] is 4.60 to 5.00.
For `Nc1nccnc1C(=O)Nc1cc(C(=O)c2ccccc2)ccc1N1CCC(N)CC1` [Example 233, 3-amino-pyrazine-2-carboxylic acid [2-(4-amino-piperidin-1-yl)-5-benzoyl-phenyl]-amide], the IC50 was 1 to 10 µM in assay [1], over 25 µM in assay [2], 1 to 10 µM in assay [3] and 1 to 10 µM in assay [5]. For the same molecule, the negative logarithm of the IC50 (pIC50) in assay [4] was 5.00 to 6.00.
With `NCC1CCCN(c2cnc(=O)[nH]c2NC(=O)c2nc(Cl)c(N)nc2N)C1` (stereo not drawn) [Example 236, 3,5-diamino-N-{5-[3-(amino-methyl)piperidin-1-yl]-2-oxo-2,3-dihydropyrimidin-4-yl}-6-chloropyrazine-2-carboxamide], the IC50 is under 1 µM in assay [1], under 1 µM in assay [2], under 1 µM in assay [3] and 10 to 25 µM in assay [5]. Further, the pIC50 in assay [4] was under 4.60.
For the molecule `NCCC(=O)N1CCN(c2cnc(=O)[nH]c2NC(=O)c2nccnc2N)CC1` [Example 237, 3-amino-N-{5-[4-(3-amino-propanoyl)piperazin-1-yl]-2-oxo-2,3-dihydropyrimidin-4-yl}-pyrazine-2-carboxamide], the IC50 in assay [1], in assay [2], in assay [3] and in assay [5] was under 1 µM throughout. Further, in assay [4], the pIC50 is 5.00 to 6.00.
